Measured values taken from PMC7703437, “In Vitro Hepatic Metabolism of Curcumin Diethyl Disuccinate by Liver S9 from Different Animal Species” (Frontiers in Pharmacology, 2020).
“And” between values parts separate entries of the source, which are not always exact repeats. Equal entries are not always repeated.

System: DLS9
Experiment: CDD depletion in DLS9 0.02 mg/ml (optimisation of incubation condition)
Type: in vitro ADME, dog
Settings: CDD 3 μM
Description: The metabolism profiles of CDD and curcumin formation profile were investigated against HLS9, MLS9, DLS9 and RLS9. A stock solution of CDD was prepared at 150 µM in 50% acetonitrile in water before use. The metabolism study was initiated by spiking a 588 µl pre-incubated LS9 with 12 µl CDD stock solution, and subsequently incubated at 37°C. The final concentrations of CDD and LS9 were 3 µM and 0.02 mg/ml, respectively. A 50 µl aliquot from the mixture was collected at 0.5, 1, 2, 3, 4, 5, 10, 15, 30, 45 and 60 min and was immediately mixed with 100 µl of ice-cold acetonitrile containing 0.45 µM of internal standard DMC to terminate the metabolic reaction. […] Samples of 120 µl of supernatant wee diluted with 40 µl of water prior to UHPLC analysis (Agilent series 1290, Agilent Technology, USA) by means of protocol outlined in Materials and Methods:“In vitro Metabolism Profiling of Curcumin Diethyl Disuccinate”. The sample at 0 min was prepared as other samples except that heat-inactivated HLS9, MLS9, DLS9 and RLS9 (80°C for 20 min; 1 mg/ml protein) were used. Duplicates were conducted for each experiment.
The peak area ratios of CDD and curcumin to internal standard in the supernatant were determined. The percent contents of CDD and curcumin were plotted against incubation time. The depletion of CDD was calculated with reference to the initial concentration. The saturated substrate was defined as % depletion less than 30.

% CDD remaining (0.5 min): 76.77%
%Depletion of CDD (0.5 min (selected incubation time)): 23% and 23.23%
% CDD remaining (1 min): 66.99%
%Depletion of CDD (1 min): 33.01%
% CDD remaining (2 min): 49.79%
%Depletion of CDD (2 min): 50.21%
% CDD remaining (3 min): 42.26%
%Depletion of CDD (3 min): 57.74%
% CDD remaining (4 min): 31.30%
%Depletion of CDD (4 min): 68.70%
% CDD remaining (5 min): 25.06%
%Depletion of CDD (5 min): 74.94%
SMILES: CCOC(=O)CCC(=O)Oc1ccc(/C=C/C(=O)/C=C(O)/C=C/c2ccc(OC(=O)CCC(=O)OCC)c(OC)c2)cc1OC [CDD, curcumin diethyl disuccinate]
